Test results as given in patent US20060074073A1, “Therapeutic combinations comprising poly (ADP-ribose) polymerases inhibitor” (AGOURON PHARMACEUTICALS, INC., priority 2004, published 2006).
Where “and” joins values, the source holds several entries; their conditions need not be identical. Equal entries are not always repeated. Where two headings read alike, the source gives them in different places. Marks after values point to notes of the source that are not given here.

Experiments:
[1] = human, in vivo
Method: This is an open-label, multi-center, dose-escalation study being conducted in 2 parts. Part 1 of the study was open to patients with advanced tumors.
The PK analysis was conducted on preliminary interim data using nominal collection times.

SW620 xenograft = assay: In vivo antitumor efficacy with irinotecan, SW620 xenograft; parameters: species or system mice; details: SW620, once weekly × 3
Text: In no combination study was antagonism observed.

A549 cells = assay: Inhibition of cell growth and potentiation of temozolomide/topotecan, A549; type: cell-based; details: for GI50: Homo sapiens, 120 h, 5-day continuous exposure
SW620 cells = assay: Inhibition of cell growth and potentiation of topotecan, SW620; type: cell-based, human
PARP [2] = assay: Inhibition of MNNG-induced cellular NAD depletion and poly-ADP-ribose polymer formation in A549 cells; type: cell-based; details: for NAD (% DMSO) / Polymer (% MNNG): MNNG 25 μM
PARP [3] = assay: Inhibition of cellular NAD consumption in P388 mouse leukemia cells after PARP activation; type: cell-based; details: PARP activated by MNNG, hydrogen peroxide or gamma irradiation, data not shown
Text: After DNA damage, cellular NAD is rapidly incorporated into poly-ADP-ribose polymer.

Human protein binding = type: in vitro ADME
Method: This value was determined from the target effect (IC89) for inhibition of cellular NAD^+ depletion and poly-ADP-ribose polymer formation and adjusted for protein binding. […] II. Pharmaceutical Combinations of the Present Invention and Their Use

[4] = IV pharmacokinetics in monkeys; details: cynomolgus monkey, in vivo
LoVo xenografts [5] = assay: Ex-vivo clonogenic assay of irradiated LoVo xenografts; type: in vivo
Method: 24 h later tumors were excised, disaggregated to obtain single cell suspensions and plated for colony forming assay. […] The SF for the 15 mg/kg and 30 mg/kg IR combinations equated to that which would have been achieved using radiation doses of 8 Gy or 9.5 Gy, giving dose modification factors (DMF) of 1.6 and 1.9 respectively.

LoVo xenografts [6] = assay: Tumor growth delay with X-irradiation, LoVo xenografts; type: in vivo
Method: The experimental endpoint was defined to be the time required for relative tumor volume to increase to four times the volume measured at the start of treatment (RTV4). Growth delays were calculated from the difference in time taken to achieve RTV4 (days) between IR/Formula 1 treated tumors and untreated controls.

[7] = A549, compound 0.4 μM (Table 6)
[8] = 15 mg/kg single IV dose as glucuronate salt

## CNCc1ccc(-c2[nH]c3cc(F)cc4c3c2CCNC4=O)cc1.O=P(O)(O)O [Compound I, phosphate salt of 8-fluoro-2-{4-[(methylamino)methyl]phenyl}-1,3,4,5-tetrahydro-6H-azepino[5,4,3-cd]indol-6-one]
[1]
  mean total body clearance: 27 L/h
[1]; iv
  dose proportionality in AUC(0-24) and Cmax: linear dose proportionality
  mean terminal half-life: 6.2 to 10.7 h
[1]; iv, 1 mg/m2
  AUC0-24: 24.2 ng·h/mL
  AUCinf: 24.2 ng·h/mL
[1]; iv, 2 mg/m2
  AUC0-24: 139.0 ng·h/mL
  AUCinf: 167.0 ng·h/mL
[1]; iv, 4 mg/m2
  AUC0-24: 237.3 ng·h/mL
  AUCinf: 286.6 ng·h/mL
  CL: 26.0 L/h
  Cmax: 168.9 ng/mL
  Vss: 286.4 L
  t1/2: 10.7 h
[1]; iv, 8 mg/m2
  AUC0-24: 892.4 ng·h/mL
  AUCinf: 1118.8 ng·h/mL
  CL: 16.9 L/h
  Cmax: 456.4 ng/mL
  Vss: 151.7 L
  t1/2: 10.5 h
[1]; iv, 12 mg/m2
  AUC0-24: 1017.1 ng·h/mL
  AUCinf: 1163.3 ng·h/mL
  CL: 23.9 L/h
  Cmax: 882.5 ng/mL
  Vss: 270.1 L
  t1/2: 10.6 h

## CNCc1ccc(-c2[nH]c3cc(F)cc4c3c2CCNC4=O)cc1.O=C[C@H](O)[C@@H](O)[C@H](O)[C@H](O)C(=O)O [compound of formula 1 glucuronate salt]
SW620 xenograft; irinotecan 25 mg/kg i.p. + 0.05 mg/kg i.p. (glucuronate salt)
  Enhancement (%): 700%
SW620 xenograft; irinotecan 25 mg/kg i.p. + 0.15 mg/kg i.p. (glucuronate salt)
  Enhancement (%): 1100^f %
SW620 xenograft; irinotecan 25 mg/kg i.p. + 0.5 mg/kg i.p. (glucuronate salt)
  Enhancement (%): 1100^f %

## CNCc1ccc(-c2[nH]c3cc(F)cc4c3c2CCNC4=O)cc1 [compound of formula 1, 8-fluoro-2-{4-[(methylamino)methyl]phenyl}-1,3,4,5-tetrahydro-6H-azepino[5,4,3-cd]indol-6-one]
A549 cells; A549, +0.4 μM compound of formula 1
  Topotecan PF50: 1.6
A549 cells; A549, GI50 temozolomide alone/GI50 temozolomide+0.4 μM compound of formula 1
  Temozolomide PF50: 3.5
A549 cells; A549, compound 0.0005 μM
  PF50 (Temozolomide): 1
  PF50 (Topotecan): 1.4
A549 cells; A549, compound 0.005 μM
  PF50 (Topotecan): 1.8
A549 cells; A549, compound 0.005 μM (5 nM)
  PF50 (Temozolomide): 1.3
A549 cells; A549, compound 0.05 μM
  PF50 (Topotecan): 2.1
A549 cells; A549, compound 0.1 μM
  PF50 (Temozolomide): 2.6
  PF50 (Topotecan): 2.2
A549 cells; [7]
  PF50 (Temozolomide): 3.5
  PF50 (Topotecan): 2.4
A549 cells; A549, LoVo and SW620 cell lines, read-out: GI50 values, range over cell lines
  GI50: 7 to 12 µM
A549 cells; A549, read-out: GI50
  GI50: 7 µM
SW620 cells; +0.4 μM compound of formula 1
  Topotecan PF50: 2.6
SW620 cells; Homo sapiens, SW-620, 120 h, 5-day continuous exposure
  GI50: 11 µM
PARP [2]; 50 nM
  inhibition of MNNG-induced NAD depletion: 93%
  inhibition of poly-ADP-ribose polymer formation: 95%
PARP [2]; compound 0.0005 μM
  NAD (% DMSO): 77 % DMSO
  Polymer (% MNNG): 40 % MNNG
PARP [2]; compound 0.005 μM
  NAD (% DMSO): 95 % DMSO
  Polymer (% MNNG): 11 % MNNG
PARP [2]; compound 0.05 μM
  NAD (% DMSO): 96 % DMSO
  Polymer (% MNNG): 5 % MNNG
PARP [2]; compound 0.1 μM
  NAD (% DMSO): 97 % DMSO
  Polymer (% MNNG): 4 % MNNG
PARP [2]; compound 0.4 μM
  NAD (% DMSO): 97 % DMSO
  Polymer (% MNNG): 4 % MNNG
PARP [2]; MNNG-induced, 5 nM
  inhibition of cellular poly-ADP-ribose formation: 89%
PARP [3]
  inhibition of PARP catalytic activity (cellular NAD consumption): inhibits PARP catalytic activity
Human protein binding; human, plasma, concentrations between 0.05 to 25 nM
  fraction unbound: 0.274
Human protein binding; target effect IC89 in A549 cells
  plasma concentration from 5 nM target effect corrected for human protein binding: 5.9 ng/mL
[4]; 15 mg/kg single IV dose (free base) as glucuronate salt
  AUC(0-inf): 7400 ± 700 ng·h/mL
[4]; [8]
  clearance: 33.8 ± 3.1 mL/min/kg
  half-life: 5.2 ± 0.8 h
[4]; 15 mg/kg single IV dose as glucuronate salt, read-out: Vss
  Vd: 7.2 ± 1.2 L/kg
LoVo xenografts [5]; 15 mg/kg + 5 Gy
  DMF, dose modification factor: 1.6
  SF, surviving fraction: 0.06
  radiation dose that would give the same SF: 8 Gy
LoVo xenografts [5]; 30 mg/kg + 5 Gy
  DMF, dose modification factor: 1.9
  SF, surviving fraction: 0.03
  radiation dose that would give the same SF: 9.5 Gy
LoVo xenografts [6]; IR 2 Gy + 0.15 mg/kg i.p. 30 minutes before, daily × 5, 0.15 mg/kg
  Enhancement (%): 36% and 36^e %
LoVo xenografts [6]; IR 2 Gy + 15 mg/kg i.p. 30 minutes before, daily × 5, 15 mg/kg
  Enhancement (%): 36% and 36^f %
